Where “and” joins values, the source holds several entries; their conditions need not be identical. Equal entries are not always repeated.
Legend:
[1] = system: bleomycin-induced idiopathic pulmonary fibrosis (IPF); experiment: Nebulized tegavivint nanosuspension in mouse model of bleomycin-induced idiopathic pulmonary fibrosis; assay type: in vivo, C57BL/6 male mice
Method: The purpose of this experiment was to investigate tegavivint nanosuspension in a mouse model of bleomycin-induced idiopathic pulmonary fibrosis (IPF). Test articles 10 were as follows:
Tegavivint (BC2059) in a nano-milled suspension 25 mg/mL in 0.625% poloxamer 188 and 10% sorbitol. The compound was refrigerated at about 4° C.
Nebulizing equipment was Altera ultrasonic eRapid machine nebulizer (model #678G1002).
Animals were 8-12 week old C57BL/6 male mice (Jackson Lab, Bar Harbor, Me.).
Murine model of pulmonary fibrosis was induced by intratracheally (IT) injected bleomycin (APP Pharmaceuticals, Schaumburg, Ill.). One dose of 0.025 U bleomycin dissolved in 50 microliters of Saline 0.9%, or PBS as control was administered to each animal on day 0.
Tegavivint nanosuspension was applied to Group 3 in the form of aerosols, through the method of whole body exposure. The mice were placed inside a plastic box. This box was sealed and connected by one of its sides to the outlet of the nebulizer device, and on the other side to a system of closed water. The whole procedure was carried out inside the fume hood of the animal room. In each treatment session, 5 ml of 25 mg/ml Tegavivint (125 mg) was nebulized over 15 min to each group of 4-5 mice in the chamber. To increase exposure of the mice to the aerosol, Tegavivint that precipitated in the aerosol chamber was collected with a syringe and re-nebulized a second and a third time. Mice were nebulized twice a day between day 5 and day 21 after administration of bleomycin. Group 1 and 2 received nebulized vehicle 5 ml in the same manner.
The body weight of animals was recorded on Days 0, 5, 8, 12, 16, 19, and 21.
Measurements of lung mechanics were performed on Day 21 as previously described (Morales-Nebreda L, et al. AJRCMB 2015) on Day 21 using a FlexiVent mouse ventilator (Scireq, Montreal, PQ, Canada) according to the protocols established by Scireq. A standard ventilation history for each mouse was obtained with three total lung capacity maneuvers before the forced oscillation and quasistatic pressure-volume curve protocols that were used to calculate airway resistance, dynamic and quasistatic tissue compliance, and elastance.
On Day 21 all animals were sacrificed and lungs were harvested. Total lung collagen content was evaluated using the Hydroxyproline Assay as previously described (Morales-Nebreda L, et al. AJRCMB 2015). In brief, mouse lungs were harvested and suspended in 1 ml of 0.5 M acetic acid and then homogenized, first with a tissue homogenizer (60 s on ice) and then using 15 strokes in a Dounce homogenizer (on ice). The resulting homogenate was spun (12,000×g) for 10 minutes, and the supernatant was used for subsequent analyses. Collagen standards were prepared in 0.5 M acetic acid using rat tail collagen (Sigma-Aldrich, St. Louis, Mo.). Picrosirius red dye was prepared by mixing 0.2 g of Sirius red F3B (Sigma-Aldrich) with 200 ml of […]; 1 ml of the Picrosirius red dye was added to 100 μl of the collagen standard or the lung homogenates and then mixed continuously at room temperature on an orbital shaker for 30 minutes. The precipitated collagen was then pelleted and washed once with 0.5 M acetic acid (12,000×g for 15 min each). The resulting pellet was resuspended in 1 ml of 0.5 M NaOH and Sirius red staining was quantified spectrophotometrically (540 nm) using a colorimetric plate reader (Bio-Rad, Hercules, Calif.).

[2] = system: bleomycin-induced pulmonary fibrosis; experiment: Bleomycin-induced pulmonary fibrosis mouse model, intravenous Tegavivint; assay type: in vivo, C57BL/6 wild-type mice; settings: 50 mg/kg biw tail-vein injection
Method: In a pilot study, Tegavivint at 50 mg/kg was administered biw (twice a week) via tail-vein injection to C57BL/6 wild-type mice. Bleomycin was administered to the mice intratracheally on day 0 to induce pulmonary fibrosis, and Tegavivint or the vehicle (5% dextrose in water) was administered on days 6, 10, 14, 18 and 21. The purpose of this experiment was to evaluate the effect of systemically-administered Tegavivint on bleomycin-induced pulmonary fibrosis in vivo.

[3] = system: DD180 cells; experiment: Fibroblast populated collagen lattice (FPCL) contraction assay; assay type: cell-based, human; settings: ≤25 pM
Method: (§1) Tegavivint (BC-2059) powder was reconstituted it in 100% dimethyl sulfoxide (DMSO) to a 10_mM stock solution. The stock was diluted to 100 nM in serum-free media (α minimal essential medium, αMEM), and further diluted to 100 pM in serum-free αMEM immediately before the analyses were performed. Serial dilutions from 100 pM down to 0.78 pM were assessed in various assays. 0.001% DMSO in αMEM was used as the vehicle control, and αMEM alone was used as an untreated control, in a subset of analyses.
Fibroblast populated collagen lattice assays were performed on primary palmar fascia fibroblasts derived from the fibrotic palmar fascia of one patient with Dupuytren's disease (DD180) using the protocol described in Raykha, C., Crawford, J., Gan, B. S., Fu, P., Bach, L. A., and O'Gorman, D. B. (2013) IGF-II and IGFBP-6 regulate cellular contractility and proliferation in Dupuytren's disease. Biochimica et biophysica acta. 1832, 1511-9.

[4] = system: cell lines derived from chromic myeloid leukemia (CML) patients and cell lines and primary cells derived from myeloproliferative neoplasm (MPN) patients; settings: background statement; cited from earlier work
[5] = system: primary palmar fascia fibroblasts derived from the fibrotic palmar fascia (DD249 cells); experiment: Alamar Blue proliferation/viability assay, DD249 cells; assay type: cell-based, human; settings: for proliferation/viability: DD249 cells, 48 and 72 hrs relative to 24 hrs
Method: as §1
Proliferation/viability analyses were performed in triplicate on primary palmar fascia fibroblasts derived from the fibrotic palmar fascia (DD cells) of 2 patients with Dupuytren's disease (DD249, DD77) and syngeneic primary palmar fascia fibroblasts derived from visibly non-fibrotic palmar fascia (PF cells) from these patients (PF249, PF77). Cells were cultured on type-1 collagen coated 96 well trays for these analyses to better replicate substrate interactions in vivo. Two independent assays were used for these analyses: Alamar Blue assays for analyses up to 72 hrs in cells derive from 1 patient, and Water Soluble Tetrazolium-(WST-1) assays for analyses up to 24 hrs in cells derived from the other patients. Significant effects of treatment on proliferation over time were detected by ANOVA repeated measures.

[6] = Group 3, inhaled tegavivint after bleomycin injury
[7] = Group 3: IT bleomycin Day 0, 5 ml of 25 mg/ml tegavivint aerosol BID Day 5-21, Day 21, individual animals
[8] = Tegavivint alone (no bleomycin)

Tegavivint
body weight loss caused by bleomycin induced lung injury ([1]; Group 3, inhaled tegavivint): reversed the body weight loss
lung compliance [1, 6]: reversed the compliance values to near those of the sham-treated controls
total lung collagen content (Hydroxyproline assay) [1, 6]: reversed this change and the collagen levels are closed to sham-treated controls
Compliance (ml/cm H20) [1, 7]: 0.05515 ml/cm H20 and 0.05604 ml/cm H20 and 0.06762 ml/cm H20 and 0.0543 ml/cm H20 and 0.0561 ml/cm H20
Hydroxyproline (μg/half lung) [1, 7]: 70.016 μg/half lung and 39.44 μg/half lung and 45.68 μg/half lung and 58.784 μg/half lung and 64.296 μg/half lung
Change in body weight (%) ([1]; Group 3: IT bleomycin Day 0, 5 ml of 25 mg/ml tegavivint aerosol BID Day 5-21, individual animals): −2.83% and 5.2% and 7.3% (2×) and 7.9%
pulmonary compliance ([2]; Tegavivint after bleomycin): partially restored
total soluble collagen content in lung tissue (Sircol assay) ([2]; Tegavivint after bleomycin): completely restored the collagen level to the same as vehicle-only controls
pulmonary compliance [2, 8]: no effect
total soluble collagen content in lung tissue (Sircol assay) [2, 8]: no effect
effects on contractility [3]: did not identify any consistent effects
apoptosis and growth inhibition [4]: undergo apoptosis and growth inhibition
proliferation/viability ([5]; 25 pM): viable and able to proliferate to significantly greater cell numbers
proliferation/viability ([5]; 50 pM): unable to proliferate
therapeutic window concentration (proliferation of fibrosis-derived but not syngeneic palmar fascia derived cells inhibited) ([5]; DD versus PF cells, preliminary analyses): approximately 50 pM
cytotoxic concentrations ([5]; fibrosis-derived fibroblasts, both proliferation/viability assays and visual inspection): > 100 pM
effects on cell proliferation/viability ([5]; ≤25 pM): did not identify any consistent effects
